Test results published in publication PMC3718742, “Proline Dehydrogenase Regulates Redox State and Respiratory Metabolism in Trypanosoma cruzi” (PLoS ONE, 2013).

T1: recombinant TcPRODH (Trypanosoma cruzi, UniProt Q4CVA1)
T1 construct: gene Tc00.1047053506411.30; dimer (native gel of mitochondria, 140 kDa)
T1 sequence (Q4CVA1 17-566): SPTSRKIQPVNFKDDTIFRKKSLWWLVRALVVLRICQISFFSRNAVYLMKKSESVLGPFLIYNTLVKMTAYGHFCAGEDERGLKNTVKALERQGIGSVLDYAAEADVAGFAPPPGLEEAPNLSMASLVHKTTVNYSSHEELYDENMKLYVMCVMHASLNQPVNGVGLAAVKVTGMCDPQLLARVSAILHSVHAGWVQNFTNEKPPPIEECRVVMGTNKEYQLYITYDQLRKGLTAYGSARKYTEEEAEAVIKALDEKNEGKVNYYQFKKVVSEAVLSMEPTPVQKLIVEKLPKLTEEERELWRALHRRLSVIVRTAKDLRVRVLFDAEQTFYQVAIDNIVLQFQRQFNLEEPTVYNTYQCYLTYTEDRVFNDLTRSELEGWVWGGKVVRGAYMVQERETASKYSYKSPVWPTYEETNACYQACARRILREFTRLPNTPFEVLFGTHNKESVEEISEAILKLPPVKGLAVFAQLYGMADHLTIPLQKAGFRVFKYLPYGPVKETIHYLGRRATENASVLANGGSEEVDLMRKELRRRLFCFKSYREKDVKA

B1: recombinant TcPRODH (Trypanosoma cruzi strain CL Brener) (protein)
chain: T1 sequence (Q4CVA1 17-566)

Key:
recombinant TcPRODH = target: T1, recombinant TcPRODH; test: UV-visible spectrum of purified enzyme; cofactor dependence of activity; type: biochemical; conditions: flavin peaks at 370 and 450 nm; NAD+ and NADP+ not accepted
purified protein = substrate: O=C(O)[C@@H]1CCCN1; test: purified protein; conditions: DCPIP/phenazine methosulfate acceptor, MOPS, MgCl2, glycerol, pH 7.5, error printed as ±1.69 in text (b1)

| Molecule | UV-visible spectrum of purified enzyme; cofactor dependence of activity (recombinant TcPRODH) | Km (purified protein) [µM] |
| --- | --- | --- |
| Cc1cc2nc3c(=O)[nH]c(=O)nc-3n(C[C@H](O)[C@H](O)[C@H](O)COP(=O)(O)OP(=O)(O)OC[C@H]3O[C@@H](n4cnc5c(N)ncnc54)[C@H](O)[C@@H]3O)c2cc1C [FAD] | purified enzyme had a typical flavoprotein absorbance spectrum, characterized by two flavin absorption peaks | – |
| B1 | – | 16.58 ± 6.08 |
